Measured values taken from ChEMBL document CHEMBL1139097, “Synthesis and QSAR studies on hypotensive 1-[3-(4-substituted phenylthio) propyl]-4-(substituted phenyl) piperazines” (Bioorg Med Chem Lett, 2007).

Columns and labels:
Felis catus = test: Hypotensive activity in anaesthetized cat assessed as blood pressure fall at 2 umol/kg, iv; type: functional
[1] = target: 5-hydroxytryptamine receptor 2A (Rattus norvegicus) (UniProt P14842); test: Displacement of [3H]ketanserin from rat cloned 5HT2A receptor expressed in NIH-3T3-GF6 cells at 10^-6M relative to ketanserin; type: cell-based
Sequence of 5-hydroxytryptamine receptor 2A (Rattus norvegicus) (P14842 whole entry): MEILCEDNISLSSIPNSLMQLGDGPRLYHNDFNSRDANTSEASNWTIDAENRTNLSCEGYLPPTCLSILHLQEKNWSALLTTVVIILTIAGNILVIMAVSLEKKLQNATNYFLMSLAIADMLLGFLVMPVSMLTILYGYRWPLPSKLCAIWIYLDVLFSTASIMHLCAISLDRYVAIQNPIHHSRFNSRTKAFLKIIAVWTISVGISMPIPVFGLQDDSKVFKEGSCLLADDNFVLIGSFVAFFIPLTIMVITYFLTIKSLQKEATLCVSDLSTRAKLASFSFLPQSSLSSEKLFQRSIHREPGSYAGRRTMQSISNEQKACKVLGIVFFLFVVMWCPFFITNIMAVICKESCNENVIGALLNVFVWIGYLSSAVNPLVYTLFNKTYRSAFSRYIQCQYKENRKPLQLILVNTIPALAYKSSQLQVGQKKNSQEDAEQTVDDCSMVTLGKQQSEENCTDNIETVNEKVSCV

[2] = target: 5-hydroxytryptamine receptor 2A (Rattus norvegicus, UniProt P14842); test: Displacement of [3H]ketanserin from rat cloned 5HT2A receptor expressed in NIH-3T3-GF6 cells; type: cell-based
Sequence of 5-hydroxytryptamine receptor 2A (P14842 whole entry): as above

| SMILES | Activity (Felis catus) [%] | Activity [1] [%] | Ki [2] [nM] |
| --- | --- | --- | --- |
| Fc1ccc(N2CCN(CCCSc3ccc(Br)cc3)CC2)cc1 | 19.86 |  |  |
| Clc1ccc(N2CCN(CCCSc3ccccc3)CC2)cc1Cl | 45.83 |  |  |
| CCNc1ccc(SCCCN2CCN(c3cccc(C)c3)CC2)cc1 | 41.14 |  |  |
| Fc1ccc(N2CCN(CCCSc3ccccc3)CC2)cc1 | 20.69 |  |  |
| c1ccc(SCCCN2CCN(c3ccccc3)CC2)cc1 | 41.07 | 37.4 |  |
| Cc1ccc(SCCCN2CCN(c3ccccc3C)CC2)cc1 | 61.02 |  |  |
| COc1ccc(SCCCN2CCN(c3ccc(F)cc3)CC2)cc1 | 17.46 |  |  |
| CCNc1ccc(SCCCN2CCN(c3ccccc3C)CC2)cc1 | 48.65 |  |  |
| CC(=O)Nc1ccc(SCCCN2CCN(c3ccccc3C)CC2)cc1 | 51.61 | 72.7 | 21.1 |
| Nc1ccc(SCCCN2CCN(c3ccc(F)cc3)CC2)cc1 | 13.51 |  |  |
| Clc1cccc(N2CCN(CCCSc3ccccc3)CC2)c1 | 55.99 |  |  |
| Clc1ccc(SCCCN2CCN(c3ccc(Cl)c(Cl)c3)CC2)cc1 | 26.58 |  |  |
| O=[N+]([O-])c1ccc(SCCCN2CCN(c3ccc(F)cc3)CC2)cc1 | 25.87 |  |  |
| Cc1cccc(N2CCN(CCCSc3ccccc3)CC2)c1 | 65.15 | 75.6 | 13.6 |
| Cc1ccccc1N1CCN(CCCSc2ccc(Cl)cc2)CC1 | 40 |  |  |
| Fc1ccc(N2CCN(CCCSc3ccc(Cl)cc3)CC2)cc1 | 42.31 |  |  |
| COc1ccc(N2CCN(CCCSc3ccc(Br)cc3)CC2)cc1 | 23.06 | 37.1 |  |
| Cc1cccc(N2CCN(CCCSc3ccc([N+](=O)[O-])cc3)CC2)c1 | 84.41 | 80.5 | 21.1 |
| Fc1ccc(SCCCN2CCN(c3ccccc3)CC2)cc1 | 14.28 | 37 |  |
| COc1ccc(SCCCN2CCN(c3cccc(Cl)c3)CC2)cc1 | 42.62 |  |  |
| Fc1ccc(SCCCN2CCN(c3ccc(Cl)c(Cl)c3)CC2)cc1 | 38.3 |  |  |

| SMILES | Activity (Felis catus) [%] | Activity [1] [%] | Ki [2] [nM] |
| --- | --- | --- | --- |
| Fc1ccc(SCCCN2CCN(c3cccc(F)c3)CC2)cc1 | 34 |  |  |
| COc1ccc(SCCCN2CCN(c3cccc(F)c3)CC2)cc1 | 17.02 |  |  |
| Cc1ccc(SCCCN2CCN(c3ccc(F)cc3)CC2)cc1 | 21.74 |  |  |
| COc1ccc(SCCCN2CCN(c3cccc(C)c3)CC2)cc1 | 21.4 |  |  |
| CC(=O)Nc1ccc(SCCCN2CCN(c3ccc(F)cc3)CC2)cc1 | 21.21 | 85.4 |  |
| CC(=O)Nc1ccc(SCCCN2CCN(c3cccc(C)c3)CC2)cc1 | 55 | 94.7 | 6.09 |
| COc1ccc(N2CCN(CCCSc3ccc(F)cc3)CC2)cc1 | 12.49 | 25.7 |  |
| Fc1ccc(SCCCN2CCN(c3ccc(F)cc3)CC2)cc1 | 20.66 | 32.9 |  |
| Cc1cccc(N2CCN(CCCSc3ccc(F)cc3)CC2)c1 | 38.3 |  |  |
| Cc1ccccc1N1CCN(CCCSc2ccc([N+](=O)[O-])cc2)CC1 | 42 |  |  |
| Cc1ccc(SCCCN2CCN(c3cccc(C)c3)CC2)cc1 | 55.74 |  |  |
| Cc1cccc(N2CCN(CCCSc3ccc(N)cc3)CC2)c1 | 24.28 |  |  |
| Cc1cccc(N2CCN(CCCSc3ccc(Cl)cc3)CC2)c1 | 43.8 |  |  |
| COc1ccc(SCCCN2CCN(c3ccc(Cl)c(Cl)c3)CC2)cc1 | 21.05 |  |  |
| Cc1ccc(SCCCN2CCN(c3ccc(Cl)c(Cl)c3)CC2)cc1 | 36.36 |  |  |
| CC(=O)Nc1ccc(SCCCN2CCN(c3ccc(Cl)c(Cl)c3)CC2)cc1 | 20 |  |  |
| COc1ccc(SCCCN2CCN(c3cccc(C(F)(F)F)c3)CC2)cc1 | 53.42 |  |  |
| COc1ccccc1N1CCN(CCCSc2ccc(Br)cc2)CC1 | 21.59 |  |  |
| Cc1ccccc1N1CCN(CCCSc2ccc(F)cc2)CC1 | 37.59 |  |  |
| COc1ccc(N2CCN(CCCSc3ccccc3)CC2)cc1 | 15.38 |  |  |
| COc1ccccc1N1CCN(CCCSc2ccccc2)CC1 | 26.23 |  |  |
